Measurements as given in PubChem BioAssay AID1963443 (Molecular Pharmacology Branch, DTP, NCI, 2024).

System: MDA-MB-231 complex spheroids, growth inhibition
Assay: Anticancer human tumor MDA-MB-231 cell line growth inhibition [Asc];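 further: spheroids exposed to compounds for 7 days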
Conditions: for IC50: curve of first compound; for viability, T/C: stronger effect = lower value
Outline: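 Complex spheroids combining tumor cells with HUVEC endothelial cells and human MSCs, at 37 degrees C, 5% CO2; agents tested alone or combined, half-log dilutions from at or near clinical Cmax, or 10 microM if Cmax unknown.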

[1] = second compound 0.01 µM, first compound 0.0316 µM
[2] = second compound 0.01 µM, first compound 0.1 µM
[3] = second compound 0.01 µM, first compound 0.316 µM
[4] = second compound 0.01 µM, first compound 1 µM
[5] = second compound 0.0316 µM, first compound 0.0316 µM
[6] = second compound 0.0316 µM, first compound 0.1 µM
[7] = second compound 0.0316 µM, first compound 0.316 µM
[8] = second compound 0.0316 µM, first compound 1 µM
[9] = second compound 0.1 µM, first compound 0.0316 µM
[10] = second compound 0.1 µM, first compound 0.1 µM
[11] = second compound 0.1 µM, first compound 0.316 µM
[12] = second compound 0.1 µM, first compound 1 µM
[13] = second compound 0.316 µM, first compound 0.0316 µM
[14] = second compound 0.316 µM, first compound 0.1 µM
[15] = second compound 0.316 µM, first compound 0.316 µM
[16] = second compound 0.316 µM, first compound 1 µM
[17] = second compound 1 µM, first compound 0.0316 µM
[18] = second compound 1 µM, first compound 0.1 µM
[19] = second compound 1 µM, first compound 0.316 µM
[20] = second compound 1 µM, first compound 1 µM

| SMILES | IC50 (second compound 0.01 µM) | IC50 (second compound 0.0316 µM) | IC50 (second compound 0.1 µM) | IC50 (second compound 0.316 µM) | IC50 (second compound 1 µM) | viability, T/C [1] | viability, T/C [2] | viability, T/C [3] | viability, T/C [4] | viability, T/C [5] | viability, T/C [6] | viability, T/C [7] | viability, T/C [8] | viability, T/C [9] | viability, T/C [10] | viability, T/C [11] | viability, T/C [12] | viability, T/C [13] | viability, T/C [14] | viability, T/C [15] | further results |
| --- | --- | --- | --- | --- | --- | --- | --- | --- | --- | --- | --- | --- | --- | --- | --- | --- | --- | --- | --- | --- | --- |
| C=CC(=O)N1CCN(c2nc(=O)n(-c3c(C)ccnc3C(C)C)c3nc(-c4c(O)cccc4F)c(F)cc23)C(C)C1 (stereo not given) + CNC(C)C(=O)NC1CN(S(=O)(=O)c2cccc(S(=O)(=O)N3CCC4CCC(C(=O)NC(c5ccccc5)c5ccccc5)N4C(=O)C(NC(=O)C(C)NC)C3)c2)CCC2CCC(C(=O)NC(c3ccccc3)c3ccccc3)N2C1=O | < 31.6 nM | < 31.6 nM | < 31.6 nM | < 31.6 nM | < 31.6 nM | 4.27% | 4.47% | 3.48% | 4.14% | 1.6% | 1.97% | 3.62% | 3.15% | 1.84% | 1.71% | 1.31% | 0.87% | 1.02% | 1.06% | 2.22% | viability, T/C (second compound 0.01 µM, first compound 3.16 µM): 3.21%; viability, T/C (second compound 0.01 µM, first compound 10 µM): 2.6%; viability, T/C (second compound 0.0316 µM, first compound 3.16 µM): 2.97%; viability, T/C (second compound 0.0316 µM, first compound 10 µM): 3.77%; viability, T/C (second compound 0.1 µM, first compound 3.16 µM): 2.25%; viability, T/C (second compound 0.1 µM, first compound 10 µM): 1.71%; viability, T/C [16]: 1.43%; viability, T/C (second compound 0.316 µM, first compound 3.16 µM): 1.4%; viability, T/C (second compound 0.316 µM, first compound 10 µM): 2.33%; viability, T/C [17]: 1.09%; viability, T/C [18]: 1.13%; viability, T/C [19]: 1.81%; viability, T/C [20]: 1.73%; viability, T/C (second compound 1 µM, first compound 3.16 µM): 1.35%; viability, T/C (second compound 1 µM, first compound 10 µM): 3.82% |
| COc1c(OCCCN2CCOCC2)ccc2c3n(c(=NC(=O)c4cnc(N)nc4)nc12)CCN3 + CNC(C)C(=O)NC1CN(S(=O)(=O)c2cccc(S(=O)(=O)N3CCC4CCC(C(=O)NC(c5ccccc5)c5ccccc5)N4C(=O)C(NC(=O)C(C)NC)C3)c2)CCC2CCC(C(=O)NC(c3ccccc3)c3ccccc3)N2C1=O | < 3.16 nM | < 3.16 nM | < 3.16 nM | < 3.16 nM | < 3.16 nM | 3.39% | 3.64% | 2.42% | 3.12% | 1.48% | 1.69% | 1.21% | 1.12% | 2.19% | 1.47% | 1.18% | 0.78% | 1.85% | 1.41% | 0.21% | viability, T/C (second compound 0.01 µM, first compound 0.00316 µM): 3.3%; viability, T/C (second compound 0.01 µM, first compound 0.01 µM): 4.73%; viability, T/C (second compound 0.0316 µM, first compound 0.00316 µM): 2.47%; viability, T/C (second compound 0.0316 µM, first compound 0.01 µM): 3.12%; viability, T/C (second compound 0.1 µM, first compound 0.00316 µM): 2.16%; viability, T/C (second compound 0.1 µM, first compound 0.01 µM): 2.68%; viability, T/C (second compound 0.316 µM, first compound 0.00316 µM): 1.32%; viability, T/C (second compound 0.316 µM, first compound 0.01 µM): 1.65%; viability, T/C [16]: 0.62%; viability, T/C (second compound 1 µM, first compound 0.00316 µM): 1.05%; viability, T/C (second compound 1 µM, first compound 0.01 µM): 1.1%; viability, T/C [17]: 0.84%; viability, T/C [18]: 0.98%; viability, T/C [19]: 0.77%; viability, T/C [20]: 0.29% |
